Data from patent publication US9795139B2, “Molecules having pesticidal utility, and intermediates, compositions, and processes, related thereto” (priority 2015, dated 2017).

What was measured:
[1] = test system: Beet Armyworm (Spodoptera exigua, LAPHEG); test: Bioassay on Beet Armyworm (BAW), 128-well diet tray assay; type: in vivo; conditions: 168 h, 50 μg/cm^2 on artificial diet, second instar larvae, 25° C., five to seven days, average of eight wells, read-out: BAW % Control (or Mortality) rating
Protocol: (§1) Certain molecules disclosed in this document were tested against BAW and CL using procedures described in the following examples. In the reporting of the results, the “BAW & CL Rating Table” was used (See Table Section).
Bioassays on BAW were conducted using a 128-well diet tray assay. One to five second instar BAW larvae were placed in each well (3 mL) of the diet tray that had been previously filled with approximately 1.5 mL of artificial diet to which 50 μg/cm^2 of the test molecule (dissolved in 50 μL of 90:10 acetone-water mixture) had been applied (to each of eight wells) and then allowed to dry. Trays were covered with a clear self-adhesive cover, vented to allow gas exchange, and held at 25° C., 14:10 light-dark for five to seven days. Percent mortality was recorded for the larvae in each well; activity in the eight wells was then averaged. The results are indicated in the table entitled “Table ABC: Biological Results” (See Table Section).

[2] = test system: Cabbage Looper (Trichoplusia ni, TRIPNI); test: Bioassay on Cabbage Looper (CL), 128-well diet tray assay; type: in vivo; conditions: 168 h, 50 μg/cm^2 on artificial diet, second instar larvae, 25° C., five to seven days, average of eight wells, read-out: CL % Control (or Mortality) rating
Protocol: as §1
Bioassays on CL were conducted using a 128-well diet tray assay. one to five second instar CL larvae were placed in each well (3 mL) of the diet tray that had been previously filled with 1 mL of artificial diet to which 50 μg/cm^2 of the test molecule (dissolved in 50 μL of 90:10 acetone-water mixture) had been applied (to each of eight wells) and then allowed to dry. Trays were covered with a clear self-adhesive cover, vented to allow gas exchange, and held at 25° C., 14:10 light-dark for five to seven days. Percent mortality was recorded for the larvae in each well; activity in the eight wells was then averaged. The results are indicated in the table entitled “Table ABC: Biological Results” (See Table Section).

SMILES | mortality at 50 µg/cm2 [1] [%] | mortality at 50 µg/cm2 [2] [%]
N#CC1(NC(=O)c2cc(NC(=O)[C@H]3[C@H](c4cc(C(F)(F)F)cc(C(F)(F)F)c4)C3(Cl)Cl)ccc2Cl)CC1 (relative stereo) [Molecule F25, trans-5-(3-(3,5-Bis(trifluoromethyl)phenyl)-2,2-dichlorocyclopropanecarboxamido)-2-chloro-N-(1-cyanocyclopropyl)benzamide] | 50 to 100 | 50 to 100
N#CC1(NC(=O)c2cc(NC(=O)[C@H]3[C@H](c4cc(Cl)cc(C(F)(F)F)c4)C3(Cl)Cl)ccc2Cl)CC1 (relative stereo) [Molecule F27, trans-2-Chloro-N-(1-cyanocyclopropyl)-5-(2,2-dichloro-3-(3-chloro-5-(trifluoromethyl)phenyl)cyclopropanecarboxamido)benzamide] | 50 to 100 | 50 to 100
Cc1c(Cl)cc([C@H]2[C@H](C(=O)Nc3ccc(Cl)c(C(=O)NC4(C#N)CC4)c3)C2(Cl)Cl)cc1Cl (relative stereo) [Molecule F49, trans-2-Chloro-N-(1-cyanocyclopropyl)-5-(2,2-dichloro-3-(3,5-dichloro-4-methylphenyl)cyclopropanecarboxamido)benzamide] | 50 to 100 | 50 to 100
O=C(NC1CN(C(=O)C(F)(F)F)C1)c1cc(NC(=O)[C@H]2[C@H](c3cc(Cl)cc(Cl)c3)C2(Cl)Cl)ccc1Cl (relative stereo) [Molecule F60, trans-2-chloro-5-(2,2-dichloro-3-(3,5-dichlorophenyl)cyclopropanecarboxamido)-N-(1-(2,2,2-trifluoroacetyl)azetidin-3-yl)benzamide] | 50 to 100 | 50 to 100
O=C(NC1CC(F)(F)C1)c1cc(NC(=O)[C@H]2[C@H](c3cc(C(F)(F)F)cc(C(F)(F)F)c3)C2(Cl)Cl)ccc1Cl (relative stereo) [Molecule F24, trans-5-(3-(3,5-Bis(trifluoromethyl)phenyl)-2,2-dichlorocyclopropanecarboxamido)-2-chloro-N-(3,3-difluorocyclobutyl)benzamide] | 50 to 100 | 50 to 100
O=C(NN1CCOCC1)c1cc(NC(=O)[C@H]2[C@H](c3cc(Cl)cc(Cl)c3)C2(Cl)Cl)ccc1Cl (relative stereo) [Molecule F52, trans-2-Chloro-5-(2,2-dichloro-3-(3,5-dichlorophenyl)cyclopropanecarboxamido)-N-morpholinobenzamide] | 50 to 100 | 50 to 100
Cc1cc(Cl)cc([C@H]2[C@H](C(=O)Nc3ccc(Cl)c(C(=O)NC4(C#N)CC4)c3)C2(Cl)Cl)c1 (relative stereo) [Molecule F47, trans-2-Chloro-N-(1-cyanocyclopropyl)-5-(2,2-dichloro-3-(3-chloro-5-methylphenyl)cyclopropanecarboxamido)benzamide] | 50 to 100 | 50 to 100
O=C(NC1CNC1)c1cc(NC(=O)[C@H]2[C@H](c3cc(Cl)cc(Cl)c3)C2(Cl)Cl)ccc1Cl (relative stereo) [Molecule F59, trans-N-(azetidin-3-yl)-2-chloro-5-(2,2-dichloro-3-(3,5-dichlorophenyl)cyclopropanecarboxamido) benzamide] | 50 to 100 | 50 to 100
O=C(NC1CC(F)(F)C1)c1cc(NC(=O)[C@H]2[C@H](c3cc(Cl)c(Cl)cc3Cl)C2(Cl)Cl)ccc1Cl (relative stereo) [Molecule F20, trans-2-Chloro-5-(2,2-dichloro-3-(2,4,5-trichlorophenyl)cyclopropanecarboxamido)-N-(3,3-difluorocyclobutyl)benzamide] | 50 to 100 | 50 to 100
O=C(NC1CC(F)(F)C1)c1cc(NC(=O)[C@H]2[C@H](c3cc(Cl)c(F)c(Cl)c3)C2(Cl)Cl)ccc1Cl (relative stereo) [Molecule F30, trans-2-Chloro-5-(2,2-dichloro-3-(3,5-dichloro-4-fluorophenyl)cyclopropanecarboxamido)-N-(3,3-difluorocyclobutyl)benzamide] | 50 to 100 | 50 to 100
N#CC1(NC(=O)c2cc(NC(=O)[C@H]3[C@H](c4ccc(Cl)c(F)c4)C3(Cl)Cl)ccc2Cl)CC1 (relative stereo) [PF2, trans-2-Chloro-N-(1-cyanocyclopropyl)-5-(2,2-dichloro-3-(4-chloro-3-fluorophenyl)cyclopropane-1-carboxamido)benzamide] | 50 to 100 | 50 to 100
N#CC1(NC(=O)c2cc(NC(=O)[C@H]3[C@H](c4cc(Cl)c(F)c(Cl)c4)C3(Cl)Cl)ccc2Cl)CC1 (relative stereo) [Molecule F31, trans-2-Chloro-N-(1-cyanocyclopropyl)-5-(2,2-dichloro-3-(3,5-dichloro-4-fluorophenyl)cyclopropanecarboxamido)benzamide] | 50 to 100 | 50 to 100
N#CC1(NC(=O)c2cc(NC(=O)[C@H]3[C@H](c4cc(Br)cc(Br)c4)C3(Cl)Cl)ccc2Cl)CC1 (relative stereo) [Molecule F29, trans-2-Chloro-N-(1-cyanocyclopropyl)-5-(2,2-dichloro-3-(3,5-dibromophenyl)cyclopropanecarboxamido)benzamide] | 50 to 100 | 50 to 100
CN(C(=O)c1cc(NC(=O)[C@H]2[C@H](c3cc(Cl)cc(Cl)c3)C2(Cl)Cl)ccc1Cl)C1(C#N)CC1 (relative stereo) [PF20, trans-2-Chloro-N-(1-cyanocyclopropyl)-5-(2,2-dichloro-3-(3,5-dichloro-phenyl)cyclopropane-1-carboxamido)-N-methylbenzamide] | 50 to 100 | 50 to 100
N#CC1(NC(=O)c2cc(NC(=O)[C@H]3[C@H](c4ccc(F)c(Cl)c4)C3(Cl)Cl)ccc2Cl)CC1 (relative stereo) [PF3, trans-2-Chloro-N-(1-cyanocyclopropyl)-5-(2,2-dichloro-3-(3-chloro-4-fluorophenyl)cyclopropane-1-carboxamido)benzamide] | 50 to 100 | 50 to 100
O=C(NC1CCSC1)c1cc(NC(=O)[C@H]2[C@H](c3cc(Cl)cc(Cl)c3)C2(Cl)Cl)ccc1Cl (relative stereo) [Molecule F7, trans-2-Chloro-5-(2,2-dichloro-3-(3,5-dichlorophenyl)cyclopropanecarboxamido)-N-(tetrahydrothiophen-3-yl)benzamide] | 50 to 100 | 50 to 100
N#CC1(NC(=O)c2cc(NC(=O)[C@H]3[C@H](c4ccc(C(F)(F)F)cc4)C3(Cl)Cl)ccc2Cl)CC1 (relative stereo) [Molecule F23, trans-2-Chloro-N-(1-cyanocyclopropyl)-5-(2,2-dichloro-3-(4-(trifluoromethyl)phenyl)cyclopropanecarboxamido)benzamide] | 50 to 100 | 50 to 100
O=C(NC1CC(F)(F)C1)c1cc(NC(=O)[C@H]2[C@H](c3cc(Br)cc(Br)c3)C2(Cl)Cl)ccc1Cl (relative stereo) [Molecule F28, trans-2-Chloro-5-(2,2-dichloro-3-(3,5-dibromophenyl)cyclopropanecarboxamido)-N-(3,3-difluorocyclobutyl)benzamide] | 50 to 100 | 50 to 100
O=C(NC1C[S+]([O-])C1)c1cc(NC(=O)C2C(c3cc(Cl)c(Cl)c(Cl)c3)C2(Cl)Cl)ccc1Cl (single isomer, unassigned) [Molecule F56, trans-2-chloro-5-(2,2-dichloro-3-(3,4,5-trichlorophenyl)cyclopropanecarboxamido)-N-(1-oxidothietan-3-yl)benzamide] | 50 to 100 | 50 to 100
O=C(NC1CS(=O)(=O)C1)c1cc(NC(=O)[C@H]2[C@H](c3cc(Cl)c(Cl)c(Cl)c3)C2(Cl)Cl)ccc1Cl (relative stereo) [Molecule F58, trans-2-chloro-5-(2,2-dichloro-3-(3,4,5-trichlorophenyl)cyclopropanecarboxamido)-N-(1,1-dioxidothietan-3-yl)benzamide] | 50 to 100 | 50 to 100
O=C(NC1CC(F)(F)C1)c1cc(NC(=O)[C@H]2[C@H](c3cc(Cl)c(Cl)c(Cl)c3)C2(Cl)Cl)ccc1Cl (relative stereo) [Molecule F6, trans-2-Chloro-5-(2,2-dichloro-3-(3,4,5-trichlorophenyl)cyclopropanecarboxamido)-N-(3,3-difluorocyclobutyl)benzamide] | 50 to 100 | 50 to 100
N#CC1(NC(=O)c2cc(NC(=O)[C@H]3[C@H](c4ccccc4)C3(Cl)Cl)ccc2Cl)CC1 (relative stereo) [Molecule F38, trans-2-Chloro-N-(1-cyanocyclopropyl)-5-(2,2-dichloro-3-phenylcyclopropanecarboxamido)benzamide] | 50 to 100 | 50 to 100
